According to patent US9301961B2, “Autoimmune and inflammatory disorder therapy” (Katholieke Universiteit Leuven, K.U. Leuven R&D, priority 2011, dated 2016):
Like-named read-outs stand apart in the source and are kept apart here.

Key:
[1] = system: Peripheral blood mononuclear cells (PBMCs) mixed with mitomycin C treated RPMI1788 cells; assay: Mixed lymphocyte reaction (MLR) assay, 3H-thymidine uptake
Description: In the MLR assay PBMCs from two individuals are mixed together in tissue culture for several days. […] In the one-way MLR test, the mononuclear cells from one of the individuals are inactivated (usually by treatment with mitomycin C or irradiation), thereby allowing only the untreated remaining population of mononuclear cells, such as lymphocytes, to proliferate in response to foreign histocompatibility antigens.
The immunosuppressive effect of test compounds was also investigated using MLR assays. Peripheral blood mononuclear cells (PBMCs) were isolated from heparinized blood of healthy donors by density-gradient centrifugation over Lymphoprep. […] RPMI1788 cells were treated with 30 μg/mL mitomycin C for 20 min at 37° C., washed four times with medium, and finally suspended in complete RPMI medium to a density of 0.45×10^6 cells/mL. An amount of 100 μL of each cell suspension was mixed with 20 μL of diluted compound. The mixed cells were cultured at 37° C. for 6 days in 5% CO2. […] Thereafter, the cells were harvested on glass filter paper and the counts per minute (cpm) determined in a liquid scintillation counter.

LOK = target: T1, LOK (Homo sapiens, UniProt O94804); assay: Kinase-tagged phage competition binding assay (qPCR), 382-kinase library
T1 construct: made in house; host or cells: E. coli BL21-derived host (T7 phage) or HEK-293
T1 sequence (O94804 whole entry): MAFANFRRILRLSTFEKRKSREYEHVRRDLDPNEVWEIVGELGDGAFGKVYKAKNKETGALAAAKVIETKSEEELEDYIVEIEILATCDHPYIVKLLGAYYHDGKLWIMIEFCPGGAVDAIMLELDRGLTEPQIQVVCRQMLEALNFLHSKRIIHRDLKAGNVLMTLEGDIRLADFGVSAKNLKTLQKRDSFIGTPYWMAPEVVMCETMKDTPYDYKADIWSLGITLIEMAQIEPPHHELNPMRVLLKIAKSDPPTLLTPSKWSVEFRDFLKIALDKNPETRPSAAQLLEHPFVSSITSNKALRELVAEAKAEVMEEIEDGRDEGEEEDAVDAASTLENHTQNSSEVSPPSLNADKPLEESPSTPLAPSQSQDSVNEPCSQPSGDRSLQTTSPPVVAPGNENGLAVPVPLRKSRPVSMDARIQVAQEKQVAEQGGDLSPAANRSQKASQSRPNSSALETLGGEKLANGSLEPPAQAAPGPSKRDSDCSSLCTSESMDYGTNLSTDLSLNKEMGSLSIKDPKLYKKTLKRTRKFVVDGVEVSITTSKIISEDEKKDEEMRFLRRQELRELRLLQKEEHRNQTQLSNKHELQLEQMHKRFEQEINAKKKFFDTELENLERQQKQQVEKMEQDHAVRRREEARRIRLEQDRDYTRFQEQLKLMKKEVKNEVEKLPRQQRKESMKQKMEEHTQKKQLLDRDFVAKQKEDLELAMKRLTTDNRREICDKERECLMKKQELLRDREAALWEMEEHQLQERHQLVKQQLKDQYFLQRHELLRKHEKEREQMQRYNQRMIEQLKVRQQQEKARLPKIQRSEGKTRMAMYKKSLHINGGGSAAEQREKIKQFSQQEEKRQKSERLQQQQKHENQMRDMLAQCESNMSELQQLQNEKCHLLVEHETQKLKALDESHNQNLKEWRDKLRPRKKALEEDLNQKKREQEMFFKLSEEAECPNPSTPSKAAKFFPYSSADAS

TESK1 = target: T2, TESK1 (Homo sapiens, UniProt Q15569); assay: as above
T2 construct: made in house; host or cells: E. coli BL21-derived host (T7 phage) or HEK-293
T2 sequence (Q15569 whole entry): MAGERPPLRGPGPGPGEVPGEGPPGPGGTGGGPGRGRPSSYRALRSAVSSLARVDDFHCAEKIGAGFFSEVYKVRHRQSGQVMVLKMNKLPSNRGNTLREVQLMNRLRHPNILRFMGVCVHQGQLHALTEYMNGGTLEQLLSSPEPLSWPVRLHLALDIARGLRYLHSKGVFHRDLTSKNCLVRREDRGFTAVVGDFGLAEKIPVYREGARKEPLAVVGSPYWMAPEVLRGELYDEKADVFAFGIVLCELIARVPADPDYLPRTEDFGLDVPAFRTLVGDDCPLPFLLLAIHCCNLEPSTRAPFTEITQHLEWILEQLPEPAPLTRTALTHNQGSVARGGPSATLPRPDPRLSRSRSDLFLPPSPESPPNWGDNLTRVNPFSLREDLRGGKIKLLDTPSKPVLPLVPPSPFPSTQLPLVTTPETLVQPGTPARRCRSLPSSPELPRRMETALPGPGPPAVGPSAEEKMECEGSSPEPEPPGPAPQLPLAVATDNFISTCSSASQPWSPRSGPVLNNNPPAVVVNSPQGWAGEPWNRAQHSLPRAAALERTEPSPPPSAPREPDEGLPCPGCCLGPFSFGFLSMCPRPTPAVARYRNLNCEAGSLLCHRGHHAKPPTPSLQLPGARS

[2] = system: murine splenocytes stimulated with α-CD3 antibody; assay: Cytokine secretion after α-CD3 stimulation; assay type: cell-based, Balb/C mice; settings: Mus musculus, Splenocyte, 24 h
Description: The ability of test compounds to inhibit cytokine release by murine splenocytes after stimulation with α-CD3 antibody was also investigated.
2×10^6 splenocytes from Balb/C female mice, 8-10 weeks old in 220 μl of complete medium were stimulated with 0.1 μg of hamster anti mouse CD3ε antibody in presence of various concentrations of test compounds. After 24 h of incubation at 37° C., 5% CO2, supernatant were collected and cytokine titers were determined by flow cytometry according manufacturer protocols (MCB United States, Arlington, Mass., USA).
The results are shown in FIG. 1 compared to a DMSO negative control (▾). […].

PIK3CB = target: T3, PIK3CB (Homo sapiens, UniProt P42338); assay: Kinase-tagged phage competition binding assay (qPCR), 382-kinase library
T3 construct: made in house; host or cells: E. coli BL21-derived host (T7 phage) or HEK-293
T3 sequence (P42338 whole entry): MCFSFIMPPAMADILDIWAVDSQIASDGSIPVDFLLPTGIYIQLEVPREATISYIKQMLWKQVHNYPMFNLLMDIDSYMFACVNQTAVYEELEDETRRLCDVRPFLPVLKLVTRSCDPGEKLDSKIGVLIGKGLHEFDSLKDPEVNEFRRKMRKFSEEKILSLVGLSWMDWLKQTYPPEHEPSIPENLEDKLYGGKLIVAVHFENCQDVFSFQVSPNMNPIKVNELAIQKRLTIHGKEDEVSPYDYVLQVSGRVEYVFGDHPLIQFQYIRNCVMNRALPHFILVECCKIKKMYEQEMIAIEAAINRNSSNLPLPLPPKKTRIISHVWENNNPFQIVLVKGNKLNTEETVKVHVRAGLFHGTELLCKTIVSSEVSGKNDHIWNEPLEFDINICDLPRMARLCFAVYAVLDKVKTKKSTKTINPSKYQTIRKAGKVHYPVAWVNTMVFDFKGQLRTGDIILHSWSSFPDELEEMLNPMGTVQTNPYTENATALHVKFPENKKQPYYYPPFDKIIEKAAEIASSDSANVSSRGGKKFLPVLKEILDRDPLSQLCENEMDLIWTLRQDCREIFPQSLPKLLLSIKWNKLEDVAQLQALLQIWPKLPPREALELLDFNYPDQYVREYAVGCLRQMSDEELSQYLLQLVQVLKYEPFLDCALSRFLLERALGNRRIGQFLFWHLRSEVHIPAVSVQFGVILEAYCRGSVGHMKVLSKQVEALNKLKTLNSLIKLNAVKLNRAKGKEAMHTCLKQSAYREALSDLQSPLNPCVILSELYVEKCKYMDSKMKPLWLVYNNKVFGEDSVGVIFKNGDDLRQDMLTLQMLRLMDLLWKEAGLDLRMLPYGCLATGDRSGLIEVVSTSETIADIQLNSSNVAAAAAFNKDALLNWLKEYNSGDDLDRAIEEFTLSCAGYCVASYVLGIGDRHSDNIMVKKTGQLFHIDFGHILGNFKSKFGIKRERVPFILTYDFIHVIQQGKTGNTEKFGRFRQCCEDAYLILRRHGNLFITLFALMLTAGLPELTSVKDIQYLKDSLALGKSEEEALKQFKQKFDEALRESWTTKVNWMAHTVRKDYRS

ADCK3 = target: T4, ADCK3 (Homo sapiens, UniProt Q8NI60); assay: as above
T4 construct: made in house; host or cells: E. coli BL21-derived host (T7 phage) or HEK-293
T4 sequence (Q8NI60 163-647): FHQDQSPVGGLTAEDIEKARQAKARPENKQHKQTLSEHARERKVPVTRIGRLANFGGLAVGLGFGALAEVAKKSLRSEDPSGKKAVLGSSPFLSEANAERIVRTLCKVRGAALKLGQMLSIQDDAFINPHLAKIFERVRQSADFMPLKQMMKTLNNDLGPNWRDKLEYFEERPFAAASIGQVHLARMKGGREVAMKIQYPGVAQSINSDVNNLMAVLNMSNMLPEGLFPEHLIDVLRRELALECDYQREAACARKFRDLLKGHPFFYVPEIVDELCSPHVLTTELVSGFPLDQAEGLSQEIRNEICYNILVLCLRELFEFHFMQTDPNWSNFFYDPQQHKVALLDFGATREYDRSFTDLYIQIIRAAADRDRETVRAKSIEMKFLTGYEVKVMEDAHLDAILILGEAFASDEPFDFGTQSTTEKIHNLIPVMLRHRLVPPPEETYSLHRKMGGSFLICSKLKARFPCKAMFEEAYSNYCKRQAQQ

RIOK2 = target: T5, RIOK2 (Homo sapiens, UniProt Q9BVS4); assay: as above
T5 construct: made in house; host or cells: E. coli BL21-derived host (T7 phage) or HEK-293
T5 sequence (Q9BVS4 whole entry): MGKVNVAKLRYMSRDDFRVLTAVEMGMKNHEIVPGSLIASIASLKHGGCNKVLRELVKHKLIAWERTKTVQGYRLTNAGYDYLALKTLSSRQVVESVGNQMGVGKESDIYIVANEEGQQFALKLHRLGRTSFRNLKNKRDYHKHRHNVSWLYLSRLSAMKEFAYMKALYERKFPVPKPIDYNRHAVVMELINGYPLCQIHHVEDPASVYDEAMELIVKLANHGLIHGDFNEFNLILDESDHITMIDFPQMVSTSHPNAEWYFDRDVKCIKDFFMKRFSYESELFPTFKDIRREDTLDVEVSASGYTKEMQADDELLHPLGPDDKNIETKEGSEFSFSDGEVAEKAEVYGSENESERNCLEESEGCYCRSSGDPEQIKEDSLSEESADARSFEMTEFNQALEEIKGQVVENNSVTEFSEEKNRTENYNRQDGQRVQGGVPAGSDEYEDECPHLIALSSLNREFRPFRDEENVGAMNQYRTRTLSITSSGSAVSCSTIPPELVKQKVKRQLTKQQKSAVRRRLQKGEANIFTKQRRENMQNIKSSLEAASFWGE

PAK1 = target: T6, PAK1 (Homo sapiens, UniProt Q13153); assay: as above
T6 construct: made in house; host or cells: E. coli BL21-derived host (T7 phage) or HEK-293
T6 sequence (Q13153 whole entry): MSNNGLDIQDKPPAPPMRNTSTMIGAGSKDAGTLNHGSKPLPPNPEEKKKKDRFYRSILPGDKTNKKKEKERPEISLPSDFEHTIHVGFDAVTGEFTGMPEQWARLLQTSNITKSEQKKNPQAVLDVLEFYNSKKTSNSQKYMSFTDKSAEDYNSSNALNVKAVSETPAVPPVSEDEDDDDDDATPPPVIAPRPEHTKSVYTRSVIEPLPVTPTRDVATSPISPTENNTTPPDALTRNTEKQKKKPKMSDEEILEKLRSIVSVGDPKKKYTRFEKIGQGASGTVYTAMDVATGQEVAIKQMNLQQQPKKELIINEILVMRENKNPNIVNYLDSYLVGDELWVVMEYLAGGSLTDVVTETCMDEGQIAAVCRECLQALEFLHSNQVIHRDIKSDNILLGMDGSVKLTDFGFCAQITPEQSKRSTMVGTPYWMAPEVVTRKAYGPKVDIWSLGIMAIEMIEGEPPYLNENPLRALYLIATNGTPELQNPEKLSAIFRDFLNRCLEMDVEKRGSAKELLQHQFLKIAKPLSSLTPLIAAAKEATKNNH

[3] = 10 μM compound, read-out: % Inhibition of substrate binding
[4] = stated for the 8 kinases of Table 1

Nc1nc(N2CCN(C(=O)COc3ccc(Cl)cc3)CC2)c2nc(-c3cccnc3)sc2n1 [formula (1), 5-amino-7-[4-(4-chlorophenoxyacetyl)piperazin-1-yl]-2-(pyridin-3-yl)thiazolo[5,4-d]pyrimidine]
IC50 ([1]; RPMI-1788, 144 h, read-out: IC50 MLR, 6 days culture): < 50 nM | IC50 ([1]; read-out: IC50 MLR, 6 days culture): 30 nM | inhibition at 10 µM (LOK; [3]): 100% | IC50 (LOK; [4]): < 10000 nM | inhibition at 10 µM (TESK1; [3]): 51% | IC50 (TESK1; [4]): < 10000 nM | IC50 ([2]; read-out: IC50 for inhibition of IFNγ release): 204 nM | IC50 ([2]; read-out: IC50 for inhibition of IL2 release): 76 nM | inhibition at 10 µM (PIK3CB; [3]): 56% | IC50 (PIK3CB; [4]): < 10000 nM | inhibition at 10 µM (ADCK3; [3]): 68% | IC50 (ADCK3; [4]): < 10000 nM | inhibition at 10 µM (RIOK2; [3]): 94% | IC50 (RIOK2; [4]): < 10000 nM | inhibition at 10 µM (PAK1; [3]): 54% | IC50 (PAK1; [4]): < 10000 nM
